From PubChem BioAssay (NCI)
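These data come from cells grown in 96-well plates and exposed to compound for 48 hours at five concentrations. GI50 marks 50% less growth. TGI is the concentration that stops growth completely.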

What was measured:
Assay in all cases: NCI anticancer screen, dose series, 48 h
MDA-MB-231 breast = test system: MDA-MB-231 breast
MDA-N = test system: MDA-N
OVCAR-3 ovarian = test system: OVCAR-3 ovarian
MDA-MB-435 = test system: MDA-MB-435
DU-145 prostate = test system: DU-145 prostate
BT-549 breast = test system: BT-549 breast
PC-3 prostate = test system: PC-3 prostate
DMS 114 small cell lung = test system: DMS 114 small cell lung
M19-MEL melanoma = test system: M19-MEL melanoma
KM20L2 colon = test system: KM20L2 colon
DMS 273 small cell lung = test system: DMS 273 small cell lung
SNB-78 CNS = test system: SNB-78 CNS
DLD-1 colon = test system: DLD-1 colon

SMILES | TGI (MDA-MB-231 breast) [µM] | TGI (MDA-N) [µM] | TGI (OVCAR-3 ovarian) [µM] | TGI (MDA-MB-435) [µM] | TGI (DU-145 prostate) [µM] | TGI (BT-549 breast) [µM] | TGI (PC-3 prostate) [µM] | GI50 (MDA-MB-231 breast) [µM] | GI50 (OVCAR-3 ovarian) [µM] | GI50 (MDA-MB-435) [µM] | GI50 (DU-145 prostate) [µM] | GI50 (BT-549 breast) [µM] | TGI (DMS 114 small cell lung) [µM] | TGI (M19-MEL melanoma) [µM] | TGI (KM20L2 colon) [µM] | TGI (DMS 273 small cell lung) [µM] | TGI (SNB-78 CNS) [µM] | TGI (DLD-1 colon) [µM] | GI50 (PC-3 prostate) [µM]
CN=C(N)/N=C(\N)Nc1cc2ccccc2c2ccccc12 | 26.2 | 27.8 | 35.8 | 32.4 | 32.3 | 29.3 | 29.5 |  |  |  |  |  |  |  |  |  |  |  | 
CCCC1=C(C(=O)OCC)C(c2ccccc2OC)C(C#N)=C(N)O1 (stereo not given) | 57.6 |  | > 100 | > 100 | > 100 | > 100 |  | 22.4 | 67.1 | 46.3 | 29.3 | 62.9 |  |  |  |  |  |  | 
CCOC(=O)C(=O)Nc1c(CC)cccc1C(C)CC (stereo not given) |  |  | > 100 |  |  |  |  |  |  |  |  |  | > 100 | > 100 | > 100 | > 100 | > 100 | > 100 | 
N#CCCOCN(CO)c1nc(N(CO)COCCC#N)nc(N(CO)COCCC#N)n1 |  |  | 59.3 |  |  |  |  |  |  |  |  |  | 52.4 | 50 | 61.5 | 32.8 | > 100 | 75.9 | 
CC(=O)N1CC(=O)NC1=S |  |  | > 100 |  |  |  |  |  |  |  |  |  | > 100 | > 100 | > 100 | > 100 | > 100 | > 100 | 
COc1cc2c(cc1OC)C1Cc3cc(OC)c(OC)cc3C(C2)O1 | > 100 | > 100 | > 100 | > 100 | > 100 | > 100 | > 100 |  |  |  |  |  |  |  |  |  |  |  | 
Nc1cccc2c1C1=NNC(=O)CC1C2 (stereo not given) |  |  | > 100 |  |  |  |  |  |  |  |  |  | > 100 | > 100 | > 100 | > 100 | > 100 | > 100 | 
NC(=O)Nc1ccc(C(=O)NCCCNC(=O)c2ccc(NC(N)=O)cc2)cc1 |  | > 100 |  | > 100 | > 100 | > 100 | > 100 |  |  |  |  |  |  |  |  |  |  |  | 
Cc1c2cc[n+](C)cc2c(C)c2c1[nH]c1ccc(Cl)cc12 | > 47.5 | > 59.3 | 22.6 | > 64.4 | 30.5 | 4.16 | > 43.2 |  |  |  |  |  | 2.78 | 3.94 | 46 | 35.7 | 2.56 | > 100 | 
O=C(Nc1cccc([N+](=O)[O-])c1)C(=O)C(C(=O)c1ccccc1F)C1OC(=O)C2C=CC=CC21 (stereo not given) |  |  |  |  |  |  |  |  |  |  |  |  |  | > 100 | > 100 | > 100 | > 100 | > 100 | 
COc1cc(NC(=O)CSc2nc3ccccc3c(=O)n2CCc2ccccc2)cc(OC)c1OC | 3.71 |  |  |  | > 100 | 9.47 |  | 1.47 |  |  | 4.98 | 3.22 |  |  |  |  |  |  | 
CNS(=O)(=O)c1ccc2[nH]c(O)c(C3=Nc4ccccc4C3=O)c2c1 | > 100 | > 100 | > 100 | > 100 | > 100 | > 100 | > 100 |  |  |  |  |  |  |  |  |  |  |  | 
O=C(NCCNc1nccc(-c2c(-c3cccc(O)c3)nc3sccn23)n1)Nc1cccc(C(F)(F)F)c1 | 12.3 |  | 22.7 | 4.94 | 30 |  | 12.6 | 3.52 | 5.52 | 2.04 | 5.37 |  |  |  |  |  |  |  | 2.94
Cc1ccc2ccc3ccc(C)nc3c2n1 | > 100 | > 100 | > 100 | > 100 | > 100 | > 100 | > 100 |  |  |  |  |  | 1.34 | > 100 | > 100 | > 100 | > 100 | > 100 | 
C[C@H](N[C@H]1CCC[C@]1(O)C#Cc1ccc2c(c1)OCO2)c1ccccc1 | > 25 |  |  | > 25 | > 25 |  | > 25 |  |  |  |  |  |  |  |  |  |  |  | 
